Our source for the Km and IC50 values is PMC4193772, “Dual Effects of Alpha-Arbutin on Monophenolase and Diphenolase Activities of Mushroom Tyrosinase” (PLoS ONE, 2014).

Assay [1] has as its system T1, mushroom tyrosinase.
T1 construct: gene PPO3
As to the kind of experiment: dopachrome formation at […] nm, diphenolase activity, Lineweaver-Burk. The format is biochemical. As to conditions: no α-arbutin, 6.67 µg/mL enzyme, 50 mM phosphate pH 6.8, 30°C, air-saturated; apparent Km.

The target in assay [2] is T1, mushroom tyrosinase. Briefly: dopachrome formation at […] nm, monophenolase activity. The format is biochemical. Conditions: 0.5 mM L-tyrosine, 20 µg/mL enzyme, 50 mM phosphate pH 6.8, 30°C, air-saturated, proposed suicide substrate.

As usually defined, the Km is the concentration of substrate that gives half-maximal velocity. As for `N[C@@H](Cc1ccc(O)c(O)c1)C(=O)O` [L-Dopa], the Km in the assay with mushroom tyrosinase [1] came to 3.92 mM. In general, IC50 refers to the concentration that inhibits the measured activity by half. Read a high IC50 as weaker potency. The compound `OC[C@H]1O[C@H](Oc2ccc(O)cc2)[C@H](O)[C@@H](O)[C@@H]1O` [α-arbutin] registered an IC50 against mushroom tyrosinase [2] of 4.5 mM.
